{"source": "patent US7815949B2", "about": "“Estrogenic extracts of Morus alba and uses thereof” (BioNovo, Inc., priority 2004, dated 2010)", "key": {"ERβ [1]": {"target": "T1, ERβ (Homo sapiens, UniProt Q92731)", "T1 sequence (Q92731 whole entry)": "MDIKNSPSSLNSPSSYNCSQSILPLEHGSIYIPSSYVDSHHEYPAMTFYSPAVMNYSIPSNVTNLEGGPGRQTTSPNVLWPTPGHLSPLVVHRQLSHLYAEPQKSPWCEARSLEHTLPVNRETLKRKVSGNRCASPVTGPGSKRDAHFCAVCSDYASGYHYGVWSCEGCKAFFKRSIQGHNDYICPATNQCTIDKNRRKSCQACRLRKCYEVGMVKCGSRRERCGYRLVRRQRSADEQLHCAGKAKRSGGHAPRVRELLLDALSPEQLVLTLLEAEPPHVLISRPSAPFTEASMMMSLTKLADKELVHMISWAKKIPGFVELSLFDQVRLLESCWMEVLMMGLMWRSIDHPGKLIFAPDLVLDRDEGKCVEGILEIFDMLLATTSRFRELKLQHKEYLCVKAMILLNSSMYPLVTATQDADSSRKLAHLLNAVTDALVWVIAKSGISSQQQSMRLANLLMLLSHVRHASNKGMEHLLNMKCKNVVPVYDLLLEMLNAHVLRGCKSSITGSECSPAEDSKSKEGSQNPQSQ", "test": "Repression of TNF-α activation of TNF-RE-tk-Luc in U2OS cells, ERβ", "assay_type": "cell-based", "set-up": "expressed in transfected cells; host or cells: U2OS (human osteosarcoma)", "procedure": "(§1) U937 cells were maintained as described previously, whereas U2OS, MDA-MB435, and MCF-7 cells were maintained and subcultured in phenol red-free Dulbecco's modified Eagle's medium/F-12 media containing 5% fetal bovine serum, 2 mM glutamine, 50 units/ml penicillin, and 50 μg/ml streptomycin. For experiments, cells were collected, transferred to a cuvette, and then electroporated with a Bio-Rad gene pulser as described previously using 3 μg of reporter plasmid and 1 μg of ERα or ERβ expression vectors. After electroporation, the cells were re-suspended in media and plated at 1 ml/dish in 12-well multiplates. […] The concentration of hormone required to produce a half-maximal induction (EC50) or inhibition (IC50) of luciferase activity was calculated with the Prism curve-fitting program (Graph Pad Software, version 2.0b). […] The cells were plated in duplicate at a density of 25,000 cells/35-mm plate in tissue culture medium containing 3% stripped fetal bovine serum. […] After 8 days the cells were counted with a Coulter counter.\nThe extracts (a and b) were than decanted and only the soluble material was used."}, "ERα or ERβ": {"test_system": "ERα or ERβ", "test": "ERE-tk-Luc luciferase activation in U937 cells transfected with ERα or ERβ", "assay_type": "cell-based", "conditions": "human monocytic U937 cells", "procedure": "(§2) Plasmid Construction. […] ERβ mutants were created with QuikChange site-directed mutagenesis kits (Stratagene), by using oligonucleotides containing the mutation. The mutants were sequenced with Sequenase kits (Amersham Pharmacia) to verify the presence of the mutation.\nas §1"}, "ERβ [2]": {"target": "T1, ERβ", "conditions": "in the presence of ERβ", "procedure": "as §2, §1"}, "TNF-RE-tk-Luc": {"test_system": "TNF-RE-tk-Luc", "test": "Antiestrogen effect on TNF-RE-tk-Luc (Example 2)", "assay_type": "cell-based", "conditions": "for effect on the repression induced by E2: TNF-RE-tk-Luc; for activation of TNF-RE-tk-Luc: antiestrogens, in contrast to E2", "procedure": "as §2, §1"}, "breast cancer": {"test_system": "breast cancer", "conditions": "among 5129 women in the treatment group, median follow-up 40 months; cited from earlier work"}, "[3]": {"test_system": "primary invasive breast cancer", "conditions": "women at high risk for breast cancer; cited from earlier work"}, "[4]": {"test_system": "estrogen receptor-positive breast cancer", "conditions": "five years of therapy; cited from earlier work"}}, "data": [{"smiles": "C[C@]12CC[C@@H]3c4ccc(O)cc4CC[C@H]3[C@@H]1CC[C@@H]2O", "note": "[E2, estradiol]", "values": [{"measurement": "repression of TNF-α activation of TNF-RE", "setting": "ERβ [1]", "result": 100, "unit": "%"}, {"measurement": "greater activation of the ERE in the presence of ERα compared to ERβ", "setting": "ERα or ERβ", "result": 10, "unit": "fold"}, {"measurement": "repression of TNF-α activation of TNF-RE-tk-Luc", "setting": "ERβ [2]", "result": "60-80%"}]}, {"smiles": "C[C@]12CC[C@@H]3c4ccc(O)cc4C[C@@H](CCCCCCCCC[S+]([O-])CCCC(F)(F)C(F)(F)F)[C@H]3[C@@H]1CC[C@@H]2O", "note": "(stereo partly shown) [ICI 182, 780]", "values": [{"measurement": "effect on the repression induced by E2", "setting": "TNF-RE-tk-Luc", "result": "abolished"}, {"measurement": "activation of TNF-RE-tk-Luc", "setting": "TNF-RE-tk-Luc", "result": 2, "unit": "fold"}]}, {"smiles": "O=C(c1ccc(OCCN2CCCCC2)cc1)c1c(-c2ccc(O)cc2)sc2cc(O)ccc12", "note": "[raloxifene]", "values": [{"measurement": "effect on the repression induced by E2", "setting": "TNF-RE-tk-Luc", "result": "abolished"}, {"measurement": "activation of TNF-RE-tk-Luc", "setting": "TNF-RE-tk-Luc", "result": 2, "unit": "fold"}, {"measurement": "cases of breast cancer", "setting": "breast cancer", "result": 13, "unit": "cases"}]}, {"smiles": "CC/C(=C(\\c1ccccc1)c1ccc(OCCN(C)C)cc1)c1ccccc1", "note": "[tamoxifen]", "values": [{"measurement": "effect on the repression induced by E2", "setting": "TNF-RE-tk-Luc", "result": "abolished"}, {"measurement": "activation of TNF-RE-tk-Luc", "setting": "TNF-RE-tk-Luc", "result": 2, "unit": "fold"}, {"measurement": "reduction of the risk of primary invasive breast cancer", "setting": "[3]", "result": 49, "unit": "%"}, {"measurement": "reduction of mortality from breast cancer", "setting": "[4]", "result": 22, "unit": "%"}, {"measurement": "reduction of the risk of recurrences", "setting": "[4]", "result": 42, "unit": "%"}]}]}
